# What was measured:
# [1] = test system: tobacco mosaic virus (TMV); test: Anti-TMV in vitro effect (half-leaf soaking); assay type: cell-based, tobacco mosaic virus (host Nicotiana tabacum L.cv.Xanthi NN); settings: for inhibition at 100 µg/mL / inhibition at 500 µg/mL: Tobacco mosaic virus, read-out: Relative inhibition rate (%) In vitro activity
# [2] = test system: tobacco mosaic virus (TMV); test: Anti-TMV in vivo inactivation; parameters: species or system tobacco mosaic virus (host Nicotiana tabacum L.cv.Xanthi NN); settings: for inhibition at 100 µg/mL / inhibition at 500 µg/mL: Tobacco mosaic virus, read-out: Relative inhibition rate (%) In vivo inactivation
# [3] = test system: tobacco mosaic virus (TMV); test: Anti-TMV in vivo therapeutic effect; parameters: species or system tobacco mosaic virus (host Nicotiana tabacum L.cv.Xanthi NN); settings: for inhibition at 100 µg/mL / inhibition at 500 µg/mL: Tobacco mosaic virus, read-out: Relative inhibition rate (%) In vivo therapy
# [4] = test system: tobacco mosaic virus (TMV); test: Anti-TMV in vivo protective effect; parameters: species or system tobacco mosaic virus (host Nicotiana tabacum L.cv.Xanthi NN); settings: for inhibition at 100 µg/mL / inhibition at 500 µg/mL: Tobacco mosaic virus, read-out: Relative inhibition rate (%) In vivo protection
# cucumber fusarium wilt = test: Fungicidal (bactericidal) activity in vitro, PDA colony diameter; assay type: cell-based; settings: 50 mg/kg
# Cercospora arachidicola = test: as above; assay type: cell-based; settings: 50 mg/kg
# Macrophoma kawatsukai = test: as above; assay type: cell-based; settings: 50 mg/kg
# Alternaria solani = test: as above; assay type: cell-based; settings: 50 mg/kg
# Fusarium graminearumt = test: microbe, parasite or virus in culture; assay type: cell-based
# potato late blight = test: microbe, parasite or virus in culture; assay type: cell-based
# Sclerotinia scleotiorum = test: Fungicidal (bactericidal) activity in vitro, PDA colony diameter; assay type: cell-based; settings: 50 mg/kg
# Botrytis cinerea = test: as above; assay type: cell-based; settings: 50 mg/kg
# Rhizoctonia solani = test: as above; assay type: cell-based; settings: 50 mg/kg
# Phytophthora capsici = test: as above; assay type: cell-based; settings: 50 mg/kg
# Fusarium fujikuroi = test: as above; assay type: cell-based; settings: 50 mg/kg
# Rhizoctonia cereali = test: as above; assay type: cell-based; settings: 50 mg/kg
# Bipolaria maydis = test: organism not typed; assay type: cell-based
# [5] = test system: Colletotrichum orbiculare; test: Fungicidal (bactericidal) activity in vitro, PDA colony diameter; assay type: cell-based; settings: 50 mg/kg
# armyworms = assay type: in vivo; settings: concentration 600 mg/kg
# cotton bollworms = test: whole plant or invertebrate; settings: for mortality at 600 mg/kg: Helicoverpa armigera, in Gossypium hirsutum, read-out: Cotton bollworm Mortality (%)
# Method: Experimental method of cotton bollworms: feed and drug mixing method: measure 3 mL of prepared solution and add it to about 27 g of newly prepared feed, thereby obtaining needed concentration through dilution by 10 times.
# mosquito larvae = test: whole plant or invertebrate; settings: 24 h; for mortality at 10 mg/kg: Culex pipiens, read-out: Mosquito larvae Mortality (%)
# In short: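 Early fourth-instar Culex pipiens pallens larvae from an indoor colony, 10 per beaker, exposed to test compound at 5 ppm in water, diluted from a 1000 ppm acetone mother solution. Blank: water containing 0.5 mL test solvent.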
# [6] = test system: tobacco mosaic virus (TMV); test: Anti-TMV activity, overall statements on Table 1; assay type: in vivo, tobacco mosaic virus (host Nicotiana tabacum L.cv.Xanthi NN); settings: 100 μg/mL versus ningnanmycin at 100 μg/mL
# corn borers [7] = test: whole plant or invertebrate; settings: read-out: Corn borer Mortality (%)
# corn borers [8] = settings: concentration 600 mg/kg
structure (smiles),measurement,setting,value
"C[C@@H]1N[C@H](C(=O)NNC(=O)c2cccc3nnsc23)Cc2c1[nH]c1ccccc21 [Id-1, N′-((1S, 3S)-1-methyl-2,3,4,9-tetrahydropyridino [3,4-b]indol-3-tricarboxylate)benzo [d] [1,2, 3] thiadiazole-7-formylhydrazine]",inhibition at 100 µg/mL,[1]; treatment dose 100 μg/mL,22.6%
same,inhibition at 500 µg/mL,[1]; treatment dose 500 μg/mL,52.1%
same,inhibition at 100 µg/mL,[2]; treatment dose 100 μg/mL,16.2%
same,inhibition at 500 µg/mL,[2]; treatment dose 500 μg/mL,44.1%
same,inhibition at 100 µg/mL,[3]; treatment dose 100 μg/mL,26.8%
same,inhibition at 500 µg/mL,[3]; treatment dose 500 μg/mL,54.5%
same,inhibition at 100 µg/mL,[4]; treatment dose 100 μg/mL,29.9%
same,inhibition at 500 µg/mL,[4]; treatment dose 500 μg/mL,58.3%
same,inhibition of growth at 50 mg/kg,"cucumber fusarium wilt; Fusarium, 96 h",13.6%
same,inhibition of growth at 50 mg/kg,"Cercospora arachidicola; Mycosphaerella arachidis, 96 h",18.2%
same,inhibition at 50 mg/kg,Macrophoma kawatsukai,51.5%
same,inhibition of growth at 50 mg/kg,"Alternaria solani; Alternaria solani, 96 h",19%
same,inhibition of growth at 50 mg/kg,"Fusarium graminearumt; Fusarium, 96 h, read-out: Bactericidal activity (%) Fusarium graminearumt",61.5%
same,inhibition of growth at 50 mg/kg,"potato late blight; Phytophthora infestans, 96 h, read-out: Bactericidal activity (%) potato late blight",17.4%
same,inhibition of growth at 50 mg/kg,"Sclerotinia scleotiorum; Sclerotinia, 96 h",26.9%
same,inhibition of growth at 50 mg/kg,"Botrytis cinerea; Botrytis cinerea, 96 h",44.4%
same,inhibition of growth at 50 mg/kg,"Rhizoctonia solani; Rhizoctonia solani, 96 h",1.4%
same,inhibition of growth at 50 mg/kg,"Phytophthora capsici; Phytophthora capsici, 96 h",27.3%
same,inhibition of growth at 50 mg/kg,"Fusarium fujikuroi; Fusarium fujikuroi, 96 h",47.1%
same,inhibition of growth at 50 mg/kg,"Rhizoctonia cereali; Rhizoctonia, 96 h",43.2%
same,inhibition at 50 mg/kg,Bipolaria maydis; read-out: Bactericidal activity (%) Bipolaria maydis,36%
same,inhibition of growth at 50 mg/kg,"[5]; Colletotrichum orbiculare, 96 h",32%
same,Armyworm Mortality (%),armyworms,35%
same,mortality at 600 mg/kg,cotton bollworms,15%
same,mortality at 10 mg/kg,mosquito larvae,75%
same,anti-TMV activity compared with ningnanmycin,[6],equivalent to the activity of commercial variety ningnanmycin
same,mortality at 600 mg/kg,corn borers [7],35%
"C[C@@H]1N[C@H](C(=O)NNC(=O)C2CCCC2)Cc2c1[nH]c1ccccc21 [Id-7, (1S, 3S)—N′-(cyclopentyl formyl)-1-methyl-2,3,4,9-tetrahydropyridino [3,4-b] indol-3-formylhydrazine]",Relative inhibition rate (%) In vitro activity,[1]; treatment dose 100 μg/mL,22.2%
same,Relative inhibition rate (%) In vitro activity,[1]; treatment dose 500 μg/mL,47.2%
same,Relative inhibition rate (%) In vivo inactivation,[2]; treatment dose 100 μg/mL,20.3%
same,Relative inhibition rate (%) In vivo inactivation,[2]; treatment dose 500 μg/mL,42.4%
same,Relative inhibition rate (%) In vivo therapy,[3]; treatment dose 100 μg/mL,18.6%
same,Relative inhibition rate (%) In vivo therapy,[3]; treatment dose 500 μg/mL,51.4%
same,Relative inhibition rate (%) In vivo protection,[4]; treatment dose 100 μg/mL,26.6%
same,Relative inhibition rate (%) In vivo protection,[4]; treatment dose 500 μg/mL,53.9%
same,Bactericidal activity (%) Cucumber fusarium wilt,cucumber fusarium wilt,9.1%
same,Bactericidal activity (%) Cercospora arachidicola,Cercospora arachidicola,9.1%
same,Bactericidal activity (%) Macrophoma kawatsukai,Macrophoma kawatsukai,33.3%
same,Bactericidal activity (%) Alternaria solani,Alternaria solani,9.5%
same,Bactericidal activity (%) Fusarium graminearumt,Fusarium graminearumt; 50 mg/kg,15.4%
same,Bactericidal activity (%) potato late blight,potato late blight,21.7%
same,Bactericidal activity (%) Sclerotinia scleotiorum,Sclerotinia scleotiorum,7.7%
same,Bactericidal activity (%) Botrytis cinerea,Botrytis cinerea,50.0%
same,Bactericidal activity (%) Rhizoctonia solani,Rhizoctonia solani,1.4%
same,Bactericidal activity (%) Phytophthora capsici,Phytophthora capsici,15.2%
same,Bactericidal activity (%) Fusarium fujikuroi,Fusarium fujikuroi,29.4%
same,Bactericidal activity (%) Rhizoctonia cereali,Rhizoctonia cereali,29.7%
same,Bactericidal activity (%) Bipolaria maydis,Bipolaria maydis; 50 mg/kg,28.0%
same,Bactericidal activity (%) Colletotrichum orbiculare,[5],16.0%
same,Armyworm Mortality (%),armyworms,40%
same,Cotton bollworm Mortality (%),cotton bollworms; concentration 600 mg/kg,30%
same,Mosquito larvae Mortality (%),mosquito larvae; concentration 10 mg/kg,80%
same,anti-TMV activity compared with ningnanmycin,[6],equivalent to the activity of commercial variety ningnanmycin
same,Corn borer Mortality (%),corn borers [8],40%
CC1NCCc2c1[nH]c1ccccc21 (stereo not shown) [Tetrahydroharmane],inhibition at 100 µg/mL,[1]; treatment dose 100 μg/mL,28.4%
same,inhibition at 500 µg/mL,[1]; treatment dose 500 μg/mL,63.7%
same,inhibition at 100 µg/mL,[2]; treatment dose 100 μg/mL,23.5%
same,inhibition at 500 µg/mL,[2]; treatment dose 500 μg/mL,64.2%
same,inhibition at 100 µg/mL,[3]; treatment dose 100 μg/mL,20.4%
same,inhibition at 500 µg/mL,[3]; treatment dose 500 μg/mL,57.2%
same,inhibition at 100 µg/mL,[4]; treatment dose 100 μg/mL,24.6%
same,inhibition at 500 µg/mL,[4]; treatment dose 500 μg/mL,59.5%
same,Armyworm Mortality (%),armyworms,15%
same,mortality at 600 mg/kg,cotton bollworms,15%
same,mortality at 10 mg/kg,mosquito larvae,30%
same,anti-TMV activity compared with ningnanmycin,[6],equivalent to the activity of commercial variety ningnanmycin
same,mortality at 600 mg/kg,corn borers [7],10%
